The text below walks through data of PubChem BioAssay (NCI).

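Tested at 5 concentrations; 48 h exposure; 96-well plates; endpoints linearly interpolated, else capped at highest concentration. Here, GI50 denotes the concentration required for 50% inhibition of growth. At the TGI there is no net growth.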

Some test systems named below: SF-539 CNS; NCI-H23 lung; SNB-19 CNS; IGROV1 ovarian; UACC-62 melanoma; K-562 leukemia; SW-620 colon; NCI-H522 lung; SK-MEL-2 melanoma; UO-31 renal.
What all share (assay): NCI anticancer screen, dose series, 48 h

Take `CCCCCCCCCCCCCC/C(C(=O)OC)=C(/O)C(=O)OCC`: the TGI in the assay on SF-539 CNS is > 100 µM; with NCI-H23 lung, > 100 µM; with SNB-19 CNS, > 100 µM; with IGROV1 ovarian, > 100 µM; in the assay on UACC-62 melanoma, 65.1 µM; with K-562 leukemia it was > 100 µM. The TGI in the assay on SW-620 colon is > 100 µM; in the assay on NCI-H522 lung it was > 100 µM; in the assay on SK-MEL-2 melanoma, 32 µM; in the assay on UO-31 renal, 53.5 µM.
For the molecule `FC(F)(F)c1ccc(C=NC23CC4CC(CC(C4)C2)C3)cc1`, the TGI in the assay on SF-539 CNS, with NCI-H23 lung, in the assay on SNB-19 CNS, in the assay with IGROV1 ovarian, in the assay with UACC-62 melanoma and in the assay on K-562 leukemia was > 100 µM in each case. The TGI in the assay with SW-620 colon, in the assay with NCI-H522 lung, in the assay with SK-MEL-2 melanoma and in the assay with UO-31 renal was > 100 µM in each case.
In the case of `NCCNCC(O)CO` (centres undefined), the TGI in the assay on SF-539 CNS, in the assay with NCI-H23 lung, in the assay on SNB-19 CNS, in the assay with IGROV1 ovarian, in the assay on UACC-62 melanoma and in the assay with K-562 leukemia was > 100 µM throughout. The TGI in the assay on SW-620 colon, in the assay on NCI-H522 lung, in the assay on SK-MEL-2 melanoma and with UO-31 renal was > 100 µM in each case.
Turning to `O=C1CC2CCCCC2=C1O` (centres undefined), the TGI with SF-539 CNS, in the assay on NCI-H23 lung, in the assay on SNB-19 CNS, with IGROV1 ovarian, in the assay on UACC-62 melanoma and with K-562 leukemia was > 100 µM in each case. Further, the TGI with SW-620 colon, with NCI-H522 lung, in the assay on SK-MEL-2 melanoma and with UO-31 renal was > 100 µM each time.
On to `Nc1ccn([C@H]2C[C@@H](O)[C@@H](CO)S2)c(=O)n1`, for which the GI50 in the assay on SF-539 CNS, in the assay with NCI-H23 lung, in the assay on SNB-19 CNS, in the assay with IGROV1 ovarian, in the assay on UACC-62 melanoma and with K-562 leukemia was > 100 µM each time. For the same molecule, the GI50 in the assay with SW-620 colon is > 70.1 µM; in the assay with SK-MEL-2 melanoma, > 100 µM; in the assay with UO-31 renal it was 23.6 µM. For the same molecule, the TGI in the assay on SF-539 CNS, in the assay on NCI-H23 lung, in the assay with SNB-19 CNS, in the assay with IGROV1 ovarian, in the assay on UACC-62 melanoma and in the assay with K-562 leukemia was > 100 µM each time. Besides, the TGI in the assay on SW-620 colon, in the assay with NCI-H522 lung, with SK-MEL-2 melanoma and in the assay on UO-31 renal was > 100 µM in each case.
Turning to `CCOC(OCC)C(CC)[Se]c1ccccc1[N+](=O)[O-]` (centres undefined), the TGI in the assay on SF-539 CNS is 5.61 µM; in the assay with NCI-H23 lung, > 42.7 µM; with SNB-19 CNS, > 94.5 µM; with IGROV1 ovarian it was > 100 µM; in the assay with UACC-62 melanoma, > 56.2 µM; with K-562 leukemia it was > 38.5 µM. For the same molecule, the TGI is > 100 µM in the assay on SW-620 colon, 4.45 µM with NCI-H522 lung, > 90.4 µM in the assay with SK-MEL-2 melanoma and > 100 µM in the assay on UO-31 renal.
As for `COC(=O)C1=C(C(=O)OC)C23C=CC=CC24C(C(=O)OC)=C(C(=O)OC)C4C1C3` (centres undefined), the TGI in the assay on SF-539 CNS, with NCI-H23 lung, in the assay on SNB-19 CNS, in the assay with IGROV1 ovarian, in the assay with UACC-62 melanoma and with K-562 leukemia was > 100 µM each time. Besides, the TGI in the assay on SW-620 colon, in the assay on NCI-H522 lung, with SK-MEL-2 melanoma and in the assay with UO-31 renal was > 100 µM throughout.
As for `NC(=O)c1csc(C2C=CC(CO)O2)n1` (centres undefined), the TGI with SF-539 CNS, in the assay on NCI-H23 lung, with SNB-19 CNS, in the assay on IGROV1 ovarian, in the assay with UACC-62 melanoma and with K-562 leukemia was > 100 µM each time. Also, the TGI with SW-620 colon, in the assay on NCI-H522 lung, in the assay on SK-MEL-2 melanoma and with UO-31 renal was > 100 µM in each case.
Turning to `COc1cc2c3c(n(CCCN4CCN(C)CC4)c(=O)c2cc1OC)-c1cc2c(cc1C3=O)OCO2`, the GI50 was 17.7 µM in the assay on SF-539 CNS; 11.9 µM with NCI-H23 lung; > 100 µM with SNB-19 CNS; 7.05 µM in the assay with IGROV1 ovarian; 15.1 µM with UACC-62 melanoma; 6.49 µM with K-562 leukemia. Besides, the GI50 with SW-620 colon is 11.2 µM; with NCI-H522 lung, 15.4 µM; in the assay with SK-MEL-2 melanoma, > 100 µM; with UO-31 renal it was 20.6 µM. Moreover, the TGI with SF-539 CNS is 38.2 µM; with NCI-H23 lung, 24.1 µM; in the assay on SNB-19 CNS it was > 100 µM; in the assay on IGROV1 ovarian it was 80.6 µM; in the assay with UACC-62 melanoma, 34.2 µM; with K-562 leukemia it was 22 µM. The TGI is 54.1 µM with SW-620 colon, 45.4 µM in the assay on NCI-H522 lung, > 100 µM in the assay on SK-MEL-2 melanoma and 62.8 µM with UO-31 renal.
Turning to `COC(=O)c1ccccc1NC(=O)C(=O)CC(=O)c1ccccc1NC1=CC(=O)C(=O)c2ccccc21`, the TGI in the assay with SF-539 CNS is 46.2 µM; with NCI-H23 lung it was 24 µM; with SNB-19 CNS it was 77.5 µM; with IGROV1 ovarian, > 59.6 µM; with UACC-62 melanoma it was 24.5 µM; in the assay on K-562 leukemia, > 100 µM. Moreover, the TGI turned out to be 23 µM in the assay with SW-620 colon, 21.4 µM in the assay with NCI-H522 lung, 30.5 µM in the assay with SK-MEL-2 melanoma and 69 µM in the assay on UO-31 renal.
